Reference: US11976061B2, “Preparation of benzimidazolone derivatives as novel diacylglyceride O-acyltransferase 2 inhibitors” (Merck Sharp & Dohme LLC, priority 2020, dated 2024)
Like-named read-outs stand apart in the source and are kept apart here.

Molecular target: T1, human DGAT2 (hDGAT2) (Homo sapiens, UniProt Q96PD7)
T1 construct: made in house; host or cells: Sf-9 insect cells (baculovirus), membrane fraction
T1 sequence (Q96PD7 1-388): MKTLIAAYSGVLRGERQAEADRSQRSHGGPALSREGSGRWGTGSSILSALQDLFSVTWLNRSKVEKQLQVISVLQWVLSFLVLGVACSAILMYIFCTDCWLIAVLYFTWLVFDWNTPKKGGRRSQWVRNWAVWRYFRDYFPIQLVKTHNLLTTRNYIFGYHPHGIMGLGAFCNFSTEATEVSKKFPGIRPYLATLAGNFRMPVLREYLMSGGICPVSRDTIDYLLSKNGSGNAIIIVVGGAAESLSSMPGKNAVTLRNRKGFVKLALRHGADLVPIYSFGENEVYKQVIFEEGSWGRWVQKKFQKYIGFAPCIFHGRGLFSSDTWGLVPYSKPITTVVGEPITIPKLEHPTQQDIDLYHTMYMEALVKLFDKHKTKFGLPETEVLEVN
Assay: DGAT2 Enzymatic Activity Assay
Assay type: biochemical
Conditions: membrane prep of Sf-9 cells expressing hDGAT2, 25 μM diolein, 5 μM 13C oleoyl-CoA, 13C18-triolein by LC/MS/MS
Summary of the method: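 Membranes from Sf-9 cells expressing untagged human DGAT2 (8 ng/μL) incubated at rt in 100 mM Tris·Cl pH 7.0, 20 mM MgCl2, 5% ethanol with 25 μM diolein and 5 μM 13C oleoyl-CoA. 13C18-triolein product quantified by LC/MS/MS against 13C21-triolein internal standard; IC50 by 4-parameter fit.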

Row | SMILES | IC50 (read-out: DGAT2 IC50) [nM] | IC50 (read-out: Human DGAT2 IC50) [nM]
1 | CC(=O)Nc1ccc(-n2c(=O)n(C(C)C)c3cc(C(=O)NC4(C)CS(=O)(=O)C4)ccc32)cc1O [Example 47, 1-(4-acetamido-3-hydroxyphenyl)-3-isopropyl-N-(3-methyl-1,1-dioxidothietan-3-yl)-2-oxo-2,3-dihydro-1H-benzo[d]imidazole-5-carboxamide] | > 10000 | –
2 | Cc1nc2c(-n3c(=O)n(C(C)C)c4cc(C(=O)NC5(C)CS(=O)(=O)C5)ccc43)cccc2o1 [Example 48, 3-isopropyl-N-(3-methyl-1,1-dioxidothietan-3-yl)-1-(2-methylbenzo[d]oxazol-4-yl)-2-oxo-2,3-dihydro-1H-benzo[d]imidazole-5-carboxamide] | > 10000 | –
3 | Cc1nc2ccc(-n3c(=O)n(C(C)C)c4cc(C(=O)NC5(C)CS(=O)(=O)C5)ccc43)cc2o1 [Example 49, 3-isopropyl-N-(3-methyl-1,1-dioxidothietan-3-yl)-1-(2-methylbenzo[d]oxazol-6-yl)-2-oxo-2,3-dihydro-1H-benzo[d]imidazole-5-carboxamide] | > 10000 | –
4 | CC(C)n1c(=O)n(-c2cccc(F)c2)c2ccc(C(=O)NC3(C)CCS(=O)(=O)CC3)cc21 [Example 50, 1-(3-fluorophenyl)-3-isopropyl-N-(4-methyl-1,1-dioxidotetrahydro-2H-thiopyran-4-yl)-2-oxo-2,3-dihydro-1H-benzo[d]imidazole-5-carboxamide] | > 9990 | –
5 | CC(C)Oc1cc(-n2c(=O)n(C(C)C)c3cc(C(=O)NC4(C)CCS(=O)(=O)CC4)ccc32)c(F)cn1 [Example 51, 1-(5-fluoro-2-isopropoxypyridin-4-yl)-3-isopropyl-N-(4-methyl-1,1-dioxidotetrahydro-2H-thiopyran-4-yl)-2-oxo-2,3-dihydro-1H-benzo[d]imidazole-5-carboxamide] | 251 | –
6 | CC(C)n1c(=O)n(-c2cccc(C#N)c2)c2ccc(C(=O)NC3(C)CCS(=O)(=O)CC3)cc21 [Example 52, 1-(3-cyanophenyl)-3-isopropyl-N-(4-methyl-1,1-dioxidotetrahydro-2H-thiopyran-4-yl)-2-oxo-2,3-dihydro-1H-benzo[d]imidazole-5-carboxamide] | > 9990 | –
7 | CC(C)n1c(=O)n(-c2cccc(C(F)(F)F)c2)c2ccc(C(=O)NC3(C)CCS(=O)(=O)CC3)cc21 [Example 53, 3-isopropyl-N-(4-methyl-1,1-dioxidotetrahydro-2H-thiopyran-4-yl)-2-oxo-1-(3-(trifluoromethyl)phenyl)-2,3-dihydro-1H-benzo[d]imidazole-5-carboxamide] | 1830 | –
8 | CC(C)n1c(=O)n(-c2cccc(N(C)C)c2)c2ccc(C(=O)NC3(C)CCS(=O)(=O)CC3)cc21 [Example 54, 1-(3-(dimethylamino)phenyl)-3-isopropyl-N-(4-methyl-1,1-dioxidotetrahydro-2H-thiopyran-4-yl)-2-oxo-2,3-dihydro-1H-benzo[d]imidazole-5-carboxamide] | 1320 | –
9 | CC(C)n1c(=O)n(-c2cccc(C(N)=O)c2)c2ccc(C(=O)NC3(C)CCS(=O)(=O)CC3)cc21 [Example 55, 1-(3-carbamoylphenyl)-3-isopropyl-N-(4-methyl-1,1-dioxidotetrahydro-2H-thiopyran-4-yl)-2-oxo-2,3-dihydro-1H-benzo[d]imidazole-5-carboxamide] | > 9990 | –
10 | CSc1cccc(-n2c(=O)n(C(C)C)c3cc(C(=O)NC4(C)CCS(=O)(=O)CC4)ccc32)c1 [Example 56, 3-isopropyl-N-(4-methyl-1,1-dioxidotetrahydro-2H-thiopyran-4-yl)-1-(3-(methylthio)phenyl)-2-oxo-2,3-dihydro-1H-benzo[d]imidazole-5-carboxamide] | 367 | –
11 | CNS(=O)(=O)c1cccc(-n2c(=O)n(C(C)C)c3cc(C(=O)NC4(C)CCS(=O)(=O)CC4)ccc32)c1 [Example 57, 3-isopropyl-N-(4-methyl-1,1-dioxidotetrahydro-2H-thiopyran-4-yl)-1-(3-(N-methylsulfamoyl)phenyl)-2-oxo-2,3-dihydro-1H-benzo[d]imidazole-5-carboxamide] | > 9990 | –
12 | CC(C)n1c(=O)n(-c2cccc(S(C)(=O)=O)c2)c2ccc(C(=O)NC3(C)CCS(=O)(=O)CC3)cc21 [Example 58, 3-isopropyl-N-(4-methyl-1,1-dioxidotetrahydro-2H-thiopyran-4-yl)-1-(3-(methylsulfonyl)phenyl)-2-oxo-2,3-dihydro-1H-benzo[d]imidazole-5-carboxamide] | > 9990 | –
13 | CC1(NC(=O)c2ccc3c(c2)n(Cc2ccc(F)cc2)c(=O)n3-c2cccc(OC(F)F)c2)CCS(=O)(=O)CC1 [Example 59, 1-(3-(difluoromethoxy)phenyl)-3-(4-fluorobenzyl)-N-(4-methyl-1,1-dioxidotetrahydro-2H-thiopyran-4-yl)-2-oxo-2,3-dihydro-1H-benzo[d]imidazole-5-carboxamide] | 38 | –
14 | Cn1c(=O)n(-c2cccc(OC(F)F)c2)c2ccc(C(=O)NC3(C)CS(=O)(=O)C3)cc21 [Example 60, 1-(3-(difluoromethoxy)phenyl)-3-methyl-N-(3-methyl-1,1-dioxidothietan-3-yl)-2-oxo-2,3-dihydro-1H-benzo[d]imidazole-5-carboxamide] | 1090 | –
15 | Cc1nnc(NC(=O)c2ccc3c(c2)n(C(C)C)c(=O)n3-c2cccc(OC(F)F)c2)s1 [Example 61, 1-(3-(difluoromethoxy)phenyl)-3-isopropyl-N-(5-methyl-1,3,4-thiadiazol-2-yl)-2-oxo-2,3-dihydro-1H-benzo[d]imidazole-5-carboxamide] | > 9990 | –
16 | CCn1cc(CNC(=O)c2ccc3c(c2)n(C(C)C)c(=O)n3-c2cccc(OC(F)F)c2)cn1 [Example 63, 1-(3-(difluoromethoxy)phenyl)-N-((1-ethyl-1H-pyrazol-4-yl)methyl)-3-isopropyl-2-oxo-2,3-dihydro-1H-benzo[d]imidazole-5-carboxamide] | > 9990 | –
17 | CC(C)(O)Cn1c(=O)n(-c2cccc(OC(F)F)c2)c2ccc(C(=O)NC3(C)CS(=O)(=O)C3)cc21 [Example 64, 1-(3-(difluoromethoxy)phenyl)-3-(2-hydroxy-2-methylpropyl)-N-(3-methyl-1,1-dioxidothietan-3-yl)-2-oxo-2,3-dihydro-1H-benzo[d]imidazole-5-carboxamide] | – | 35.6
18 | CC(C)n1c(=O)n(-c2cc(OC(F)F)ccc2F)c2ccc(C(=O)NC3(C)CCS(=O)(=O)CC3)cc21 [Example 79, 1-(5-(Difluoromethoxy)-2-fluorophenyl)-3-isopropyl-N-(4-methyl-1,1-dioxidotetrahydro-2H-thiopyran-4-yl)-2-oxo-2,3-dihydro-1H-benzo[d]imidazole-5-carboxamide] | – | 2.1
19 | CC(C)n1c(=O)n(-c2cc(OC(F)F)ccc2F)c2ccc(C(=O)NC3(C)CS(=O)(=O)C3)cc21 [Example 80, 1-(5-(Difluoromethoxy)-2-fluorophenyl)-3-isopropyl-N-(3-methyl-1,1-dioxidothietan-3-yl)-2-oxo-2,3-dihydro-1H-benzo[d]imidazole-5-carboxamide] | – | 7.7
20 | CC(C)n1c(=O)n(-c2cc(OC(F)F)ccc2F)c2ccc(C(=O)N[C@@]3(C)CCS(=O)(=O)C3)cc21 [Example 81, (S)-1-(5-(Difluoromethoxy)-2-fluorophenyl)-3-isopropyl-N-(3-methyl-1,1-dioxidotetrahydrothiophen-3-yl)-2-oxo-2,3-dihydro-1H-benzo[d]imidazole-5-carboxamide] | – | 6.3
21 | CC(C)n1c(=O)n(-c2cc(OC(F)F)ccc2F)c2ccc(C(=O)N[C@]3(C)CCS(=O)(=O)C3)cc21 [Example 82, (R)-1-(5-(Difluoromethoxy)-2-fluorophenyl)-3-isopropyl-N-(3-methyl-1,1-dioxidotetrahydrothiophen-3-yl)-2-oxo-2,3-dihydro-1H-benzo[d]imidazole-5-carboxamide] | – | 5.7
22 | CC(C)n1c(=O)n(-c2cncc(OC(F)F)c2)c2ccc(C(=O)NC3(C)CS(=O)(=O)C3)cc21 [Example 83, 1-(5-(Difluoromethoxy)pyridin-3-yl)-3-isopropyl-N-(3-methyl-1,1-dioxidothietan-3-yl)-2-oxo-2,3-dihydro-1H-benzo[d]imidazole-5-carboxamide] | – | 150
23 | CC(C)n1c(=O)n(-c2cncc(C3CC3)c2)c2ccc(C(=O)NC3(C)CS(=O)(=O)C3)cc21 [Example 84, 1-(5-Cyclopropylpyridin-3-yl)-3-isopropyl-N-(3-methyl-1,1-dioxidothietan-3-yl)-2-oxo-2,3-dihydro-1H-benzo[d]imidazole-5-carboxamide] | – | 71
24 | CC(C)n1c(=O)n(-c2cccc(OC(F)(F)C(F)F)c2)c2ncc(C(=O)NC3(C)CCS(=O)(=O)CC3)cc21 [Example 87, 1-isopropyl-N-(4-methyl-1,1-dioxo-thian-4-yl)-2-oxo-3-[3-(1,1,2,2-tetrafluoroethoxy)phenyl]imidazo[4,5-b]pyridine-6-carboxamide] | – | 20
25 | CC(C)n1c(=O)n(-c2cccc(OC(F)F)c2)c2ncc(C(=O)N[C@@]3(C)CCS(=O)(=O)C3)cc21 [Example 89, 3-[3-(difluoromethoxy)phenyl]-1-isopropyl-N-[(3S)-3-methyl-1,1-dioxo-thiolan-3-yl]-2-oxo-imidazo[4,5-b]pyridine-6-carboxamide] | 288 | –
